This passage reports DC50 results from patent US12077555B2, “STAT degraders and uses thereof” (Kymera Therapeutics, Inc., priority 2019, dated 2024).

The target of the assay is STAT3 (Homo sapiens, UniProt P40763). Kind of assay: STAT3 HiBiT degradation assay in transfected A549 cells. In kind it is cell-based. The arrangement: expressed in transfected cells; host or cells: A549. The essentials: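 Transfected A549 cells (~2000/well) plated 24 h, then treated 24 h at 37 °C, 5% CO2 with a 3-fold, 10-point compound dilution. HiBiT lytic luminescence read after 10 min at room temperature; remaining STAT3 normalized to negative and positive controls, four-parameter fit. DC50 binned A <0.01, B 0.01–0.1, C 0.1–1.0, D >1.0 µM.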
Chain of STAT3 (P40763 whole entry): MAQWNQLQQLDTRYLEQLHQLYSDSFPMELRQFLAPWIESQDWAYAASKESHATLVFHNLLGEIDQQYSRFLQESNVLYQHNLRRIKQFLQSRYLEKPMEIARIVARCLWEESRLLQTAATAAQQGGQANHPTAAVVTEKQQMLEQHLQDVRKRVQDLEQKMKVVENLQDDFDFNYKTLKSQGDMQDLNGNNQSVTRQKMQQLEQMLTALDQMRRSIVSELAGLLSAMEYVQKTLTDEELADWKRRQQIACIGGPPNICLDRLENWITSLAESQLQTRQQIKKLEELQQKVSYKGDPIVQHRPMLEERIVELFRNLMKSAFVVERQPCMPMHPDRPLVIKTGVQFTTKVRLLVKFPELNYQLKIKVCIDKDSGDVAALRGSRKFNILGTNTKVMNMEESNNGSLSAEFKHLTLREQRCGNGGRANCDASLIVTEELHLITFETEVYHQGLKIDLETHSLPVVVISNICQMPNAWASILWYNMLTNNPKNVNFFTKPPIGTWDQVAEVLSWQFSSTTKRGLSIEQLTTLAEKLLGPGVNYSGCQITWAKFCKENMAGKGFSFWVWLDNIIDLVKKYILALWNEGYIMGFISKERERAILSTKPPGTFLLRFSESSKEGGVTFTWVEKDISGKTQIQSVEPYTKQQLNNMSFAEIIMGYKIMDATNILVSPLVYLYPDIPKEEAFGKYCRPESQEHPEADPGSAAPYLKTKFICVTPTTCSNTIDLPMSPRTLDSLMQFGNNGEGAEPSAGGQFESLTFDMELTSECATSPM

Where [1] appears, read: A549, 24 h; read-out: STAT3 HiBiT A549 degradation 24 h: Average external-Abs DC50.

Read-outs that look alike come from different tables or passages of the source.

Broadly, the DC50 is the midpoint of the concentration-degradation curve. Turning to `Cn1c(=O)n(C2CCC(=O)NC2=O)c2ccc(N3CCC(CCCC(=O)N4CC[C@H]5CC[C@@H](C(=O)N[C@@H](CCC(N)=O)C(=O)NC(c6ccccc6)c6ccccc6)N5C(=O)[C@@H](NC(=O)c5cc6cc(C(=O)P(=O)(O)O)ccc6[nH]5)C4)CC3)cc21` (stereo partly drawn) [Compound I-128, 2-[[(5S,8S,10aR)-8-[[(1S)-3-carbamoyl-1-(diphenylmethylcarbamoyl)propyl]carbamoyl]-3-(4-[1-[1-(2,6-dioxopiperidin-3-yl)-3-methyl-2-oxo-1,3-benzodiazol-5-yl]piperidin-4-yl]butanoyl)-6-oxo-octahydropyrrolo[1,2-a][1,5]diazocin-5-yl]carbamoyl]-1H-indole-5-carbonylphosphonic acid], under setting [1], the DC50 was 100 to 1000 nM.

On to `Cn1c(=O)n(C2CCC(=O)NC2=O)c2ccc(C3CCN(CCC(=O)N4CC[C@H]5CC[C@@H](C(=O)N[C@@H](CCC(N)=O)C(=O)NC(c6ccccc6)c6ccccc6)N5C(=O)[C@@H](NC(=O)c5cc6cc(C(=O)P(=O)(O)O)ccc6[nH]5)C4)CC3)cc21` (stereo partly drawn) [Compound I-177, 2-[[(5S,8S,10aR)-8-[[(1S)-3-carbamoyl-1-(diphenylmethylcarbamoyl)propyl]carbamoyl]-3-(3-[4-[1-(2,6-dioxopiperidin-3-yl)-3-methyl-2-oxo-1,3-benzodiazol-5-yl]piperidin-1-yl]propanoyl)-6-oxo-octahydropyrrolo[1,2-a][1,5]diazocin-5-yl]carbamoyl]-1H-indole-5-carbonylphosphonic acid], for which, under setting [1], the DC50 is 100 to 1000 nM.

In the case of `Cc1ncsc1-c1ccc([C@H](C)NC(=O)[C@@H]2C[C@@H](O)CN2C(=O)[C@@H](NC(=O)CCCCc2cccc(OC[C@H](CCC(N)=O)NC(=O)[C@@H]3Cc4cccc5c4N3C(=O)[C@@H](NC(=O)c3cc4cc(C(=O)P(=O)(O)O)ccc4[nH]3)CC5)c2Cl)C(C)(C)C)cc1` [Compound I-243], under setting [1], the DC50 is less than 10 nM.

For `Cn1c(=O)n(C2CCC(=O)NC2=O)c2ccc([C@H]3CC[C@H](CCC(=O)N4CC[C@H]5CC[C@@H](C(=O)N[C@@H](CCC(N)=O)C(=O)NC(c6ccccc6)c6ccccc6)N5C(=O)[C@@H](NC(=O)c5cc6cc(C(=O)P(=O)(O)O)ccc6[nH]5)C4)CC3)cc21` (stereo partly drawn) [Compound I-278, 2-[[(5S,8S,10aR)-8-[[(1S)-3-carbamoyl-1-(diphenylmethylcarbamoyl)propyl]carbamoyl]-6-oxo-3-[3-[(1r,4r)-4-[1-(2,6-dioxopiperidin-3-yl)-3-methyl-2-oxo-1,3-benzodiazol-5-yl]cyclohexyl]propanoyl]-octahydropyrrolo[1,2-a][1,5]diazocin-5-yl]carbamoyl]-1H-indole-5-carbonylphosphonic acid], the DC50 under setting [1] lay in the range of 100 to 1000 nM.

On to `Cn1c(=O)n(C2CCC(=O)NC2=O)c2ccc(CCc3ccccc3CCC(=O)N3CC[C@H]4CC[C@@H](C(=O)N[C@@H](CCC(N)=O)C(=O)NC(c5ccccc5)c5ccccc5)N4C(=O)[C@@H](NC(=O)c4cc5cc(C(=O)P(=O)(O)O)ccc5[nH]4)C3)cc21` (stereo partly drawn) [Compound I-156, diammonium 2-[[(5S,8S,10aR)-8-[[(1S)-3-carbamoyl-1-(diphenylmethylcarbamoyl)propyl]carbamoyl]-3-[3-(2-[2-[1-(2,6-dioxopiperidin-3-yl)-3-methyl-2-oxo-1,3-benzodiazol-5-yl]ethyl]phenyl)propanoyl]-6-oxo-octahydropyrrolo[1,2-a][1,5]diazocin-5-yl]carbamoyl]-1H-indole-5-carbonylphosphonate], for which, where the note is “read-out: STAT3 HiBiT A549 degradation 24 h: Average external-Abs DC50; A549, 24 h”, the DC50 is 100 to 1000 nM.

On to `Cc1ncsc1-c1ccc(CNC(=O)[C@@H]2C[C@@H](O)CC2C(=O)[C@@H](NC(=O)CCc2ccc(CCCOC[C@H](CCC(N)=O)NC(=O)[C@@H]3Cc4cccc5c4N3C(=O)[C@@H](NC(=O)c3cc4cc(C(=O)P(=O)(O)O)ccc4[nH]3)CC5)cc2)C(C)(C)C)cc1` (stereo partly drawn) [Compound I-170, diammonium 2-[[(2S,11S)-2-[[(2S)-4-carbamoyl-1-[3-[4-(2-[[(2S)-1-[(2S,4R)-4-hydroxy-2-([[4-(4-methyl-1,3-thiazo1-5-yl)phenyl]methyl]carbamoyl)pyrrolidin-1-yl]-3,3-dimethyl-1-oxobutan-2-yl]carbamoyl]ethyl)phenyl]propoxy]butan-2-yl]carbamoyl]-12-oxo-1-azatricyclo[6.4.1.0^[4,13]]trideca-4(13),5,7-trien-11-yl]carbamoyl]-1H-indole-5-carbonylphosphonate], for which, under setting [1], the half-maximal degradation concentration (DC50) is greater than 1000 nM.

With `Cc1ncsc1-c1ccc(CNC(=O)[C@@H]2C[C@@H](O)CC2C(=O)[C@@H](NC(=O)CC/C=C/c2ccc(CO[C@H](C)[C@H](CCC(N)=O)NC(=O)[C@@H]3Cc4cccc5c4N3C(=O)[C@@H](NC(=O)c3cc4cc(C(=O)P(=O)(O)O)ccc4[nH]3)CC5)cc2)C(C)(C)C)cc1` (stereo partly drawn) [Compound I-130, diammonium 2-[[(2S,11S)-2-[[(3S,4R)-1-carbamoyl-4-([4-[(1E)-4-[[(2S)-1-[(2S,4R)-4-hydroxy-2-([[4-(4-methyl-1,3-thiazol-5-yl)phenyl]methyl]carbamoyl)pyrrolidin-1-yl]-3,3-dimethyl-1-oxobutan-2-yl]carbamoyl]but-1-en-1-yl]phenyl]methoxy)pentan-3-yl]carbamoyl]-12-oxo-1-azatricyclo[6.4.1.0^[4,13]]trideca-4(13),5,7-trien-11-yl]carbamoyl]-1H-indole-5-carbonylphosphonate], under setting [1], the DC50 is greater than 1000 nM.

Take `Cn1c(=O)n(C2CCC(=O)NC2=O)c2ccc(CCCCCCc3cc4c5c(c3)C[C@@H](C(=O)N[C@@H](CCC(N)=O)C(=O)NC(c3ccccc3)c3ccccc3)N5C(=O)[C@@H](NC(=O)c3cc5cc(C(=O)P(=O)(O)O)ccc5[nH]3)CC4)cc21` (stereo partly drawn) [Compound I-229, 2-[[(2S,11S)-2-[[(1S)-3-carbamoyl-1-(diphenylmethylcarbamoyl)propyl]carbamoyl]-6-[6-[1-(2,6-dioxopiperidin-3-yl)-3-methyl-2-oxo-1,3-benzodiazol-5-yl]hexyl]-12-oxo-1-azatricyclo[6.4.1.0 [4,13]]-trideca-4(13),5,7-trien-11-yl]carbamoyl]-1H-indole-5-carbonylphosphonic acid]: the DC50 under setting [1] is 10 to 100 nM.

With `Cn1c(=O)n(C2CCC(=O)NC2=O)c2cccc(CCCCCC(=O)N3CC[C@H]4CC[C@@H](C(=O)N[C@@H](CCC(N)=O)C(=O)NC(c5ccccc5)c5ccccc5)N4C(=O)[C@@H](NC(=O)c4cc5cc(C(=O)P(=O)(O)O)ccc5[nH]4)C3)c21` (stereo partly drawn) [Compound I-123, 2-[[(5S,8S,10aR)-8-[[(1S)-3-carbamoyl-1-(diphenylmethylcarbamoyl)propyl]carbamoyl]-3-[6-[1-(2,6-dioxopiperidin-3-yl)-3-methyl-2-oxo-1,3-benzodiazol-4-yl]hexanoyl]-6-oxo-octahydropyrrolo[1,2-a][1,5]diazocin-5-yl]carbamoyl]-1H-indole-5-carbonylphosphonic acid], the 50% degradation concentration (DC50) under setting [1] was greater than 1000 nM.

Take `Cc1ncsc1-c1ccc(CNC(=O)[C@@H]2C[C@@H](O)CN2C(=O)[C@@H](NC(=O)Cc2cccc(-c3ccc(CO[C@H](C)[C@H](CCC(N)=O)NC(=O)[C@@H]4Cc5cccc6c5N4C(=O)[C@@H](NC(=O)c4cc5cc(C(=O)P(=O)(O)O)ccc5[nH]4)CC6)cc3)c2)C(C)(C)C)cc1` [Compound I-145, 2-[[(2S,11S)-2-[[(3S,4R)-1-carbamoyl-4-[[3'-([[(2S)-1-[(2S,4R)-4-hydroxy-2-([[4-(4-methyl-1,3-thiazol-5-yl)phenyl]methyl]carbamoyl)pyrrolidin-1-yl]-3,3-dimethyl-1-oxobutan-2-yl]carbamoyl]methyl)-[1,1'-biphenyl]-4-yl]methoxy]pentan-3-yl]carbamoyl]-12-oxo-1-azatricyclo[6.4.1.0^[4,13]]trideca-4(13),5,7-trien-11-yl]carbamoyl]-1H-indole-5-carbonylphosphonic acid]: under setting [1], the DC50 was greater than 1000 nM.

With `Cc1ncsc1-c1ccc([C@H](C)NC(=O)[C@@H]2C[C@@H](O)CN2C(=O)[C@@H](NC(=O)CCCCCc2cccc(NC(=O)[C@H](CCC(N)=O)NC(=O)[C@@H]3Cc4cccc5c4N3C(=O)[C@@H](NC(=O)c3cc4cc(C(=O)P(=O)(O)O)ccc4[nH]3)CC5)c2Cl)C(C)(C)C)cc1` [Compound I-249, 2-[[(2S,11S)-2-[[(1S)-3-carbamoyl-1-[[2-chloro-3-(5-[[(2S)-1-[(2S,4R)-4-hydroxy-2-[[(1S)-1-[4-(4-methyl-1,3-thiazol-5-yl)phenyl]ethyl]carbamoyl]pyrrolidin-1-yl]-3,3-dimethyl-1-oxobutan-2-yl]carbamoyl]pentyl)phenyl]carbamoyl]propyl]carbamoyl]-12-oxo-1-azatricyclo[6.4.1.0^[4,13]]trideca-4(13),5,7-trien-11-yl]carbamoyl]-1H-indole-5-carbonylphosphonic acid], the DC50 under setting [1] lay within 10 to 100 nM.

Consider `Cc1ncsc1-c1ccc([C@H](C)NC(=O)[C@@H]2C[C@@H](O)CN2C(=O)[C@@H](NC(=O)CCCc2cccc(OC[C@H](CCC(N)=O)NC(=O)[C@@H]3CCCN3C(=O)[C@H](CC(C)C)NC(=O)c3cc4cc(C(=O)P(=O)(O)O)ccc4[nH]3)c2Cl)C(C)(C)C)cc1` [Compound I-240], for which the DC50 under setting [1] lay in the range of 10 to 100 nM.

Turning to `Cc1cc(CCCCC(=O)N[C@H](C(=O)N2C[C@H](O)C[C@H]2C(=O)N[C@@H](C)c2ccc(-c3scnc3C)cc2)C(C)(C)C)ccc1CO[C@H](C)[C@H](CCC(N)=O)NC(=O)[C@@H]1Cc2cccc3c2N1C(=O)[C@@H](NC(=O)c1cc2cc(C(=O)P(=O)(O)O)ccc2[nH]1)CC3` [Compound I-226, 2-[[(2S,11S)-2-[[(3S,4R)-1-carbamoyl-4-[[4-(4-[[(2S)-1-[(2S,4R)-4-hydroxy-2-[[(1S)-1-[4-(4-methyl-1,3-thiazol-5-yl)phenyl]ethyl]carbamoyl]pyrrolidin-1-yl]-3,3-dimethyl-1-oxobutan-2-yl]carbamoyl]butyl)-2-methylphenyl]methoxy]pentan-3-yl]carbamoyl]-12-oxo-1-azatricyclo[6.4.1.0^[4,13]]trideca-4(13),5,7-trien-11-yl]carbamoyl]-1H-indole-5-carbonylphosphonic acid], the DC50 under setting [1] fell in the range of 10 to 100 nM.
